Experimental data published in BindingDB's records for patent US9701669 (Merck Sharp & Dohme Corp, 2017).

Molecular target: T1, Proteinase-activated receptor 1 (Homo sapiens, UniProt P25116)
T1 sequence (P25116 whole entry): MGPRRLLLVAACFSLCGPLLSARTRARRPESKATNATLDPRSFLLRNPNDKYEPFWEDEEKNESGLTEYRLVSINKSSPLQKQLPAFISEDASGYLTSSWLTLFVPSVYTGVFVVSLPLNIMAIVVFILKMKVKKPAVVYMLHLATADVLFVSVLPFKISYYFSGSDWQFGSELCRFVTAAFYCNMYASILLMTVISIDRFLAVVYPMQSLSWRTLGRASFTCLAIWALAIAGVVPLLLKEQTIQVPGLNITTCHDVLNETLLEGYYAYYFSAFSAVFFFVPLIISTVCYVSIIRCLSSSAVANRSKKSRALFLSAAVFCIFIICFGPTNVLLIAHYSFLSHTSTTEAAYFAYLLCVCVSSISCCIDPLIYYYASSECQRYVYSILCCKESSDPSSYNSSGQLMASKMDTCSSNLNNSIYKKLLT
Assay: PAR-1 FLIPR Assay
Protocol: Media was then removed from the cells, incubated with 33 ul of Calcium-5 dye in assay buffer (Hank's buffer containing 20 mM HEPES, 0.04% Chaps and 2.5 mM Probenecid) for 60 minutes at 37° C. 2 uL of varying concentrations of compound in 40% DMSO in assay buffer (final DMSO concentration is 2.3%) were then added to the cells and incubated at 25° C. for 30 minutes. […] The range of peptide was from 1.5-3 μM. The final volume was 40 uL/well, with 2% DMSO. […] The data were analyzed by taking the peak signal over a portion of the range of the 60 scans and dividing this signal by the minimum signal for that same range.

Cc1nc(/C=C/[C@@H]2[C@@H]3[C@@H](C)OC(=O)[C@]3(C(N)=O)CC(F)(F)[C@H]2C)ccc1-c1ccccc1C#N [US9701669, 4]
IC50: 6.92 nM
